Values joined by “and” are separate entries in the source; they are usually repeats but may differ in a detail not shown here. Equal values may be shown once.
Assays:
[1] = biological target: T1, purified recombinant human sAC protein (Homo sapiens, UniProt Q96PN6); assay: In vitro adenylyl cyclase activity assay (two-column method);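 for cyclase activity (%): 100% equals DMSO vehicle-treated control activity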; type: biochemical; conditions: for cyclase activity (%): Fig. 1c normalized replicates; for cyclase activity: Fig. 1c replicates
T1 construct: human sACt protein was incubated
T1 sequence (Q96PN6 1-469 limits assumed): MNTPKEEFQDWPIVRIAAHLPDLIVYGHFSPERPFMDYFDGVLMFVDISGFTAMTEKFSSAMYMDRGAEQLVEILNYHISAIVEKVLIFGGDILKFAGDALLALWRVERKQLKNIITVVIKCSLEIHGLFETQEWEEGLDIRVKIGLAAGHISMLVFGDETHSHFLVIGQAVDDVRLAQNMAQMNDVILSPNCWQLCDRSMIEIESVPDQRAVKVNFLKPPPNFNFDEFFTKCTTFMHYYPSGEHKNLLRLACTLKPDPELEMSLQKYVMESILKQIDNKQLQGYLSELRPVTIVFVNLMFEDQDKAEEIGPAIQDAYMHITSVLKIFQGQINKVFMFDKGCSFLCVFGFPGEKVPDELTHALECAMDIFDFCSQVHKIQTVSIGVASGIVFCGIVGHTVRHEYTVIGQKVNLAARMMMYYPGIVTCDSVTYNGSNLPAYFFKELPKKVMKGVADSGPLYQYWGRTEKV
Experimental: All in vitro adenylyl cyclase activity assays were performed via the “two-column” method measuring the conversion of [α-^32P] ATP into [^32P] cAMP[54], as previously described. Briefly, human sACt protein was incubated in buffer containing 50 mM Tris-HCl, pH 7.5, 4 mM MgCl2, 2 mM CaCl2, 1 mM ATP, 3 mM DTT, 40 mM NaHCO3 in the presence of the indicated concentrations of different sAC inhibitors or vehicle (1% DMSO).

[2] = biological target: T2, immobilized human sAC protein (Homo sapiens, UniProt Q96PN6); assay: Surface plasmon resonance binding kinetics;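 note: Reference-channel response subtracted from active-channel response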; conditions: Fig. 1e
T2 construct: recombinant purified His-tagged sACt protein (50 μg/ml)
T2 sequence (Q96PN6 1-469 limits assumed): T1 sequence (Q96PN6 1-469 limits assumed)
Experimental: Association and dissociation rate constants of sAC inhibitors were obtained with a Biacore 8K instrument (Cytiva) using a parallel kinetics protocol. Series S Sensor NTA chips (Cytiva) were prepared by applying recombinant purified His-tagged sACt protein (50 μg/ml) in PBS-P+ buffer (1 mM KH2PO4, 150 mM NaCl, 6 mM Na2HPO4, 0.05% (w/v) P20 Surfactant). The His-tagged sAC protein was captured via Ni^2+-His-tag chelation and covalently immobilized by amine coupling with a 1:1 mixture of 1-ethyl-3-(3-dimethylaminopropyl) carbodiimide and N-hydroxysuccinimide (active channels). After coupling, remaining reactive groups on the chip’s surface were blocked with 1 M ethanolamine followed by 350 mM EDTA to wash away any free Ni^2+. Following preparation, TBS-P+ running buffer (50 mM Tris, 150 mM NaCl, and 0.05% P20 Surfactant) supplemented with 1% DMSO was flowed over the surface of the chip until a stable baseline was obtained. For each sAC inhibitor, which were dissolved in DMSO and diluted in running buffer, increasing concentrations were injected into parallel channels for 120 s at a flow rate of 50 µl/min followed by running buffer for 600 s to allow for dissociation. All experiments included reference channels; i.e., inhibitor run over parallel channels without immobilized protein. […] Curves were fitted, and kon, KD, and koff values were determined using the Biacore 8K Insight Evaluation Software Version 2.0 (Cytiva) and a 1:1 binding kinetics model.

human sperm = assay: Acrosome reaction assay, human sperm, progesterone-evoked; type: cell-based; conditions: Fig. 2h replicates, 5 μM TDI-10229 or 10 nM TDI-11861
Experimental: Acrosome reaction was induced by incubating mouse sperm with 50 mouse solubilized zonae pellucidae for 15 min at 37 °C. Human sperm were incubated with 10 μM progesterone for 30 min at 37 °C. […] Samples were air-dried on microscope slides and fixed for 30 minutes in 100% ethanol at room temperature (RT). For acrosome staining, mouse and human sperm were incubated for 30 min in the dark with 5 μg/ml PNA-FITC or 5 μg/ml PSA-FITC, respectively, and counterstained with 2 μg/ml DAPI. After curing, slides were analyzed using a Zeiss LSM 880 Laser Scanning Confocal Microscope; images were captured with two photomultiplier and one Gallium Arsenide Phosphide detector using ZEN Imaging software. For each condition, at least 600 cells were analyzed using ImageJ 1.52.

[3] = concentration (uM) -0.52288 [sic]
[4] = concentration (uM) -1.95424 [sic]
[5] = concentration (uM) -2.43136 [sic]
[6] = concentration (uM) -2.90848 [sic]
[7] = concentration (uM) -3.38561 [sic]
[8] = concentration (uM) printed 0.477121
[9] = concentration (uM) printed -1.47712

cyclase activity (%) [1, 7]: 100%
cyclase activity (%) ([1]; concentration (uM) printed 1): 0%
SPR sensorgram response ([2]; 2.3 nM, Time 1.8 s): -0.005
SPR sensorgram response ([2]; 2.3 nM, Time 1.9 s): -0.0004
SPR sensorgram response ([2]; 2.3 nM, Time 2 s): 1.724e-7
SPR sensorgram response ([2]; 7 nM, Time 1.8 s): 0.0365
SPR sensorgram response ([2]; 7 nM, Time 1.9 s): 0.0954
SPR sensorgram response ([2]; 7 nM, Time 2 s): 0.1127
SPR sensorgram response ([2]; 21 nM, Time 1.8 s): 0.0362
SPR sensorgram response ([2]; 21 nM, Time 1.9 s): 0.0362
SPR sensorgram response ([2]; 21 nM, Time 2 s): 0.0493
SPR sensorgram response ([2]; 62 nM, Time 1.8 s): 0.4405
SPR sensorgram response ([2]; 62 nM, Time 1.9 s): 0.5261
SPR sensorgram response ([2]; 62 nM, Time 2 s): 0.5966
SPR sensorgram response ([2]; 185 nM, Time 1.8 s): 1.6528
SPR sensorgram response ([2]; 185 nM, Time 1.9 s): 1.8027
SPR sensorgram response ([2]; 185 nM, Time 2 s): 1.949
SPR sensorgram response ([2]; 555 nM, Time 1.8 s): 3.219
SPR sensorgram response ([2]; 555 nM, Time 1.9 s): 3.5189
SPR sensorgram response ([2]; 555 nM, Time 2 s): 3.8049
SPR sensorgram response ([2]; 1670 nM, Time 1.8 s): 10.7814
SPR sensorgram response ([2]; 1670 nM, Time 1.9 s): 11.5936
SPR sensorgram response ([2]; 1670 nM, Time 2 s): 12.3892
SMILES: Cc1c(Cc2ccccc2)c(-c2cc(Cl)nc(N)n2)nn1C [TDI-10229, reference compound]
cyclase activity (%) ([1]; concentration (uM) 0): 9.237% and 13.938% and 16.2416% and 14.0981% and 17.1651% and 16.2955%
cyclase activity (%) [1, 3]: 31.1405% and 32.9975% and 35.8708% and 34.2006% and 36.7402% and 35.3317%
cyclase activity (%) ([1]; concentration (uM) -1 [sic]): 63.6617% and 56.9124% and 60.5839% and 60.8807% and 64.5679% and 61.7683%
cyclase activity (%) [1, 4]: 97.3105% and 99.8737% and 91.8341% and 99.076% and 99.9562% and 83.5123%
cyclase activity (%) [1, 5]: 102.738% and 99.4561% and 103.778% and 98.5001% and 102.473% and 98.7264%
cyclase activity (%) [1, 6]: 99.2726% and 96.965% and 102.643% and 103.079% and 106.167% and 104.578%
cyclase activity (%) [1, 8]: 2.892% and 2.778% and 4.319% and 3.785% and 3.6574% and 3.195%
cyclase activity (%) [1, 9]: 87.3934% and 85.1243% and 83.28% and 86.7752% and 79.7419% and 79.6259%
cyclase activity ([1]; concentration (uM) 0): 4537 and 5556.7 and 5828.8 and 5224.3 and 5509.4 and 5355.1
cyclase activity [1, 3]: 10764.2 and 10900.3 and 11166.7 and 10456.8 and 10112.3 and 9643.4
cyclase activity ([1]; concentration (uM) -1 [sic]): 20009.8 and 17605.2 and 17887.1 and 17401.4 and 16655.7 and 15598.8
cyclase activity [1, 4]: 29576 and 29650 and 26385.2 and 27343.3 and 24976.9 and 20497.1
cyclase activity [1, 5]: 31119 and 29532.9 and 29633.3 and 27193.4 and 25568.8 and 23924.4
cyclase activity [1, 6]: 30133.8 and 28834.5 and 29324.4 and 28385.2 and 26437.3 and 25242.7
cyclase activity [1, 7]: 30340.6 and 29685.4 and 28605.8 and 27583.8 and 24987.2 and 24211.3
cyclase activity [1, 8]: 2733.4 and 2427.8 and 2586.5 and 2539.8 and 2333.2 and 2403.9
cyclase activity ([1]; concentration (uM) printed 1): 1911.1 and 1649 and 1412.1 and 1554.7 and 1473.2 and 1684.2
cyclase activity [1, 9]: 26756.6 and 25514.8 and 24059 and 24141.5 and 20223.7 and 19621.6
Acrosome reacted (%), Prog (human sperm; 10 μM progesterone): 8% and 18.1667% and 7.5% and 9% and 9.5% and 17.6667% and 10%
Acrosome reacted (%), Prog + db-cAMP/IBMX (human sperm; 10 μM progesterone, 5 mM db-cAMP/500 μM IBMX): 23% and 28.6636% and 15.5% and 15% and 16% and 30.6613% and 17.1667%
Acrosome reacted (%), basal + db-cAMP/IBMX (human sperm; 5 mM db-cAMP/500 μM IBMX): 8.5% and 15.8333% and 7.5% and 6.5% and 7% and 21.8333% and 11.3333%
Acrosome reacted (%), basal (human sperm; 180 min capacitating media): 6% and 15.1667% and 8% and 7% and 7.5% and 16.3548% and 6.667%
